According to patent US10519147B2 (Merck Sharp & Dohme Corp., priority 2015, dated 2019):
Where two headings read alike, the source gives them in different places.

Biological target: T1, human Nav1.7 (Homo sapiens, UniProt Q15858)
T1 construct: expressed in transfected cells; host or cells: HEK 293
Assay: IonWorks Quattro automated patch-clamp, inactivated state block of Nav1.7
Format: cell-based
Description: Compounds were tested on human Nav1.7 and Nav1.5 channels stably expressed in HEK 293 cells. […] Cells were sealed on a planar substrate using the Population Patch […] (PPC) technology. Electrical access was obtained using both nystatin and amphotericin. A double-pulse protocol was used for the determination of IC50 values for inactivated state block. Nav1.7 and Nav1.5 expressing cells were voltage clamped at −100 mV and −110 mV, respectively. A depolarizing prepulse to −10 mV (Nav1.7) or −30 mV (Nav1.5) for 1000 ms followed by a 10 ms repolarization to −100 mV (Nav1.7) or −110 mV (Nav1.5) was given to generate fractional channel inactivation of 50%, followed by a 10 ms test pulse to −10 mV (Nav1.7) or −30 mV (Nav1.5) to measure peak current in control conditions and after compound addition. The following recording solutions were used (mM). External: 150 NaCl, 2 CaCl2, 5 KCl, 1 Mg Cl2, 10 HEPES, 12 Dextrose; internal: 120 CsF, 30 CsCl, 10 EGTA, 5 HEPES, 5 NaF, 2 MgCl2.
For all electrophysiology experiments, offline analysis was used to determine percent inhibition as a function of drug concentration. IC50 values were determined by fitting to the Hill equation.

[1] = channels stably expressed in HEK 293 cells, double-pulse protocol, inactivated state block, read-out: potency for the Nav 1.7 sodium ion channel (IC50, as measured by IonWorks)

T1 sequence (Q15858 whole entry): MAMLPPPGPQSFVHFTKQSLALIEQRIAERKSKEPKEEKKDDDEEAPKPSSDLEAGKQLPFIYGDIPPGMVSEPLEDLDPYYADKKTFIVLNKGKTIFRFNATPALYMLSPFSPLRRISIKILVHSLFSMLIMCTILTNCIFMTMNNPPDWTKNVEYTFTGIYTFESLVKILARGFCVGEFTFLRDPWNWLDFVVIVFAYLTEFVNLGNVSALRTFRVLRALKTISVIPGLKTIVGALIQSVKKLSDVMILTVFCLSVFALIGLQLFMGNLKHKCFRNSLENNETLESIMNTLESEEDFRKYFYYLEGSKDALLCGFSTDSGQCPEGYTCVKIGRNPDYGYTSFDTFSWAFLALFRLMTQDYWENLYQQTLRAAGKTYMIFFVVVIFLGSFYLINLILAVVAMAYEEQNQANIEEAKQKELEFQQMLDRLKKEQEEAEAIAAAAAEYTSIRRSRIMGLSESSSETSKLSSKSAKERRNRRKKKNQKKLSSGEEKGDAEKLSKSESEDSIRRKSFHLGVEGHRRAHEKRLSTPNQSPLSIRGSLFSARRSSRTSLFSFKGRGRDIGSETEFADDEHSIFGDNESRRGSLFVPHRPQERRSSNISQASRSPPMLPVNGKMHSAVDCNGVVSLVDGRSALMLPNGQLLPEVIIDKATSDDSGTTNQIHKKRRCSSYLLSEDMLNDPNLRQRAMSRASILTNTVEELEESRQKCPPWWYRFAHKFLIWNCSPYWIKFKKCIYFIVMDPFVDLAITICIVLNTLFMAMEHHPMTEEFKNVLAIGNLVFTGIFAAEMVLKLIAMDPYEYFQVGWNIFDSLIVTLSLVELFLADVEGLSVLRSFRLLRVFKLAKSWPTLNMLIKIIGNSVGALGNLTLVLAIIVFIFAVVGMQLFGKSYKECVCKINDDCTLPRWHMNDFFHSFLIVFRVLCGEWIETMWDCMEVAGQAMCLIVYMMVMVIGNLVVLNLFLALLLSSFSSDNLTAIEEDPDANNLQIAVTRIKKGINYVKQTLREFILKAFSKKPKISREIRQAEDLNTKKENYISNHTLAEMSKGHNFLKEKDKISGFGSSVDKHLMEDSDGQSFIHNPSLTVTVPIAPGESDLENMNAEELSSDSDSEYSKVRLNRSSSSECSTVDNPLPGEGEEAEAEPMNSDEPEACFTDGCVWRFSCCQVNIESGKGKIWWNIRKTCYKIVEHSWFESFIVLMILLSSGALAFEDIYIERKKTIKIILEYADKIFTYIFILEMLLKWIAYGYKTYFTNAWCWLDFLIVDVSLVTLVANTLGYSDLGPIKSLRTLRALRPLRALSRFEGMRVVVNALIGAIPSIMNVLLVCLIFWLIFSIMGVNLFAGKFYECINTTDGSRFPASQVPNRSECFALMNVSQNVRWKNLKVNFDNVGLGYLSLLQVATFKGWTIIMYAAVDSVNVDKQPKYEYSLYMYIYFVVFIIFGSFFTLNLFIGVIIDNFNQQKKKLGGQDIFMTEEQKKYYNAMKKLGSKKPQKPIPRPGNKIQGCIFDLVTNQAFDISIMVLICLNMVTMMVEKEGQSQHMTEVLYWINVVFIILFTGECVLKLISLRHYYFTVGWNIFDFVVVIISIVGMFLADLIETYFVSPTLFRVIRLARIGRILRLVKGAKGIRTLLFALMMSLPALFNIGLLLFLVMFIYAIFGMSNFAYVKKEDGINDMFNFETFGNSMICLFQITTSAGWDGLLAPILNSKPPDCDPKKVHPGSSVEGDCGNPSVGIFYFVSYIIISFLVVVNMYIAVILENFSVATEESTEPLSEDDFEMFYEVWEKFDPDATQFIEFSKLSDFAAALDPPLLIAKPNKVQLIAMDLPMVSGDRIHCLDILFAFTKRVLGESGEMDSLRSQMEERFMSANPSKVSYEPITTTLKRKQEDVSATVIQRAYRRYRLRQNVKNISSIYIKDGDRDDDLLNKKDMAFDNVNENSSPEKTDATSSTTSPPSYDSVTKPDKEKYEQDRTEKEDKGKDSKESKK

SMILES | IC50 [1] [µM] | IC50 [µM]
CNCCCNCCCCNc1cc(F)c(S(=O)(=O)Nc2ncns2)cc1Br [Ex 16-91, 5-bromo-2-fluoro-4-[4-[3-(methylamino)propylamino]butylamino]-N-(1,2,4-thiadiazol-5-yl)benzenesulfonamide] | 0.014 | –
O=S(=O)(Nc1ncc(F)s1)c1cc(Cl)c(NCCCCNCC[C@H]2CCCN2)cc1F [Ex 16-18, 5-chloro-2-fluoro-N-(5-fluoro-1,3-thiazol-2-yl)-4-{[4-({2-[(2R)-pyrrolidin-2yl]-ethyl}amino)butyl]-amino} benzenesulfonamide] | 0.018 | –
C[C@@H](N)CCNCCCCNc1cc(F)c(S(=O)(=O)Nc2nccs2)cc1Cl [Ex 16-34, 4-[(4-{[(3R)-3-aminobutyl]-amino}butyl)amino]-5-chloro-2-fluoro-N-1,3-thiazol-2-ylbenzene-sulfonamide] | 0.029 | –
NCCCNCCCCNc1cc(F)c(S(=O)(=O)Nc2ncns2)cc1Br [Ex 16-97, 4-[4-(3-aminopropylamino)butylamino]-5-bromo-2-fluoro-N-(1,2,4-thiadiazol-5-yl)benzenesulfonamide] | 0.018 | –
C[C@@H]1CN[C@H](CNCCCCNc2cc(F)c(S(=O)(=O)Nc3nccs3)cc2Cl)C1 [Ex 8-09, 5-chloro-2-fluoro-4-{[4-({[(2S,4S)-4-methylpyrrolidin-2-yl]-methyl}amino)butyl]amino}-N-1,3-thiazol-2-yl-benzenesulfonamide] | 0.018 | –
O=S(=O)(Nc1nccs1)c1cc(Cl)c(NCCCCNCC2CNC2)cc1F [Ex 5-03, 4-((4-((azetidin-3-ylmethyl)amino)butyl)amino)-5-chloro-2-fluoro-N-(thiazol-2-yl)benzenesulfonamide] | 0.034 | –
NC1(CNCCCCNc2cc(F)c(S(=O)(=O)Nc3ncc(F)s3)cc2Cl)CCC1 [Ex 16-69, 4-[(4-{[(1-aminocyclobutyl)methyl]amino}butyl)amino]-5-chloro-2-fluoro-N-(5-fluoro-1,3-thiazol-2-yl)benzenesulfonamide] | 0.018 | –
CNCCNCCCCNc1cc(F)c(S(=O)(=O)Nc2ncns2)cc1Br [Ex 16-90, 5-bromo-2-fluoro-4-[4-[2-(methylamino)ethylamino]butylamino]-N-(1,2,4-thiadiazol-5-yl)benzenesulfonamide] | 0.0051 | –
CC(CCCNc1cc(F)c(S(=O)(=O)Nc2nccs2)cc1Cl)NC[C@@H]1CCCN1 (mixture of isomers) | 0.011 | –
O=S(=O)(Nc1nccs1)c1cc(Cl)c(NCCCCNC[C@H]2CCCCN2)cc1F [Ex 1-05, 5-chloro-2-fluoro-4-[(4-{[(2R)-piperidin-2-ylmethyl]amino}butyl)amino]-N-1,3-thiazol-2-ylbenzenesulfonamide] | 0.01 | –
O=S(=O)(Nc1nccs1)c1cc(Cl)c(NCCCCN[C@H]2CCCCNC2)cc1F [Ex 16-41, (S)-4-{[4-(azepan-3-ylamino)-butyl]amino}-5-chloro-2-fluoro-N-1,3-thiazol-2-yl-benzenesulfonamide] | 0.014 | –
CNCCNCCCCNc1cc(F)c(S(=O)(=O)Nc2nccs2)cc1Br [Ex 16-50, 5-bromo-2-fluoro-4-[(4-{[2-(methylamino)ethyl]amino}-butyl)amino]-N-1,3-thiazol-2-ylbenzenesulfonamide] | 0.011 | –
CC1(NCCCCNc2cc(F)c(S(=O)(=O)Nc3ncns3)cc2Br)CCNC1 (stereo not drawn) [Ex 16-96, 5-bromo-2-fluoro-4-[4-[(3-methylpyrrolidin-3-yl)amino]butylamino]-N-(1,2,4-thiadiazol-5-yl)benzenesulfonamide] | 0.015 | –
C[C@H](CN)NCCCCNc1cc(F)c(S(=O)(=O)Nc2nccs2)cc1Cl [Ex 16-08, 4-[(4-{[(1R)-2-amino-1-methylethyl]-amino}butyl)-amino]-5-chloro-2-fluoro-N-1,3-thiazol-2-ylbenzenesulfonamide] | 0.015 | –
O=S(=O)(Nc1ncns1)c1cc(Br)c(NCCCCN[C@H]2CCNC2)cc1F [Ex 16-100, (S)-5-bromo-2-fluoro-4-((4-(pyrrolidin-3-ylamino)butyl)amino)-N-(1,2,4-thiadiazol-5-yl)benzenesulfonamide] | 0.015 | –
O=S(=O)(Nc1ncc(F)s1)c1cc(Br)c(NCCCCNC[C@H]2CCCCN2)cc1F [Ex 16-04, 5-bromo-2-fluoro-N-(5-fluoro-1,3-thiazol-2-yl)-4-[(4-{[(2R)-piperidin-2-ylmethyl]amino}-butyl]amino]benzene-sulfonamide] | 0.011 | –
NCCNCCCCNc1cc(F)c(S(=O)(=O)Nc2ncns2)cc1Cl [Ex 16-33, 4-({4-[(2-aminoethyl)-amino]butyl}amino)-5-chloro-2-fluoro-N-1,2,4-thiadiazol-5-ylbenzene-sulfonamide] | 0.012 | –

SMILES | IC50 [1] [µM] | IC50 [µM]
CNCCCNCCCCNc1cc(F)c(S(=O)(=O)Nc2nccs2)cc1Br [Ex 16-55, 5-bromo-2-fluoro-4-[(4-{[3-(methylamino)propyl]amino}butyl)amino]-N-1,3-thiazol-2-ylbenzenesulfonamide] | 0.018 | –
O=S(=O)(Nc1ncns1)c1cc(Cl)c(NCCCCNC[C@H]2CCCCN2)cc1F [Ex 16-15, 5-chloro-2-fluoro-4-[(4-{[(2R)-piperidin-2-yl-methyl]amino}butyl)-amino]-N-1,2,4-thiadiazol-5-yl-benzenesulfonamide] | 0.0051 | –
O=S(=O)(Nc1ncc(F)s1)c1cc(Cl)c(NCCCCNC[C@H]2CCN2)cc1F [Ex 16-73, 4-[(4-{[(2R)-azetidin-2-ylmethyl]amino}butyl)amino]-5-chloro-2-fluoro-N-(5-fluoro-1,3-thiazol-2-yl)benzenesulfonamide] | 0.019 | –
O=S(=O)(Nc1nccs1)c1cc(Cl)c(NCCCCNC[C@@H]2C[C@H](C(F)(F)F)CN2)cc1F [Ex 8-12, 5-chloro-2-fluoro-N-1,3-thiazol-2-yl-4-{[4-({[(2S,4S)-4-(trifluoromethyl)-pyrrolidin-2-yl]methyl}amino)butyl]amino}benzenesulfonamide] | 0.021 | –
O=S(=O)(Nc1nccs1)c1cc(Cl)c(NCCCCNC[C@@H]2CCCN2)cc1F [Ex 1-06, 5-chloro-2-fluoro-4-[(4-{[(2S)-pyrrolidin-2-yl-methyl]amino}butyl)-amino]-N-1,3-thiazol-2-yl-benzenesulfonamide] | 0.015 | –
N[C@H]1CCC[C@@H]1NCCCCNc1cc(F)c(S(=O)(=O)Nc2nccs2)cc1Cl [Ex 16-72, 4-[(4-{[(1S,2S)-2-aminocyclopentyl]amino}butyl)amino]-5-chloro-2-fluoro-N-1,3-thiazol-2-ylbenzenesulfonamide] | 0.011 | –
CNCCNCCCCNc1cc(F)c(S(=O)(=O)Nc2ncc(Cl)s2)cc1Cl [Ex 16-49, 5-chloro-N-(5-chloro-1,3-thiazol-2-yl)-2-fluoro-4-[(4-{[2-(methylamino)ethyl]-amino}butyl)amino] benzene-sulfonamide] | 0.014 | –
C[C@H](CN)NCCCCNc1cc(F)c(S(=O)(=O)Nc2ncns2)cc1Cl [Ex 16-60, 4-[(4-{[(1R)-2-amino-1-methylethyl]amino}butyl)-amino]-5-chloro-2-fluoro-N-1,2,4-thiadiazol-5-yl-benzenesulfonamide] | 0.011 | –
NC1(CNCCCCNc2cc(F)c(S(=O)(=O)Nc3ncns3)cc2Br)CC1 [Ex 16-89, 4-[4-[(1-aminocyclopropyl)methylamino]butylamino]-5-bromo-2-fluoro-N-(1,2,4-thiadiazol-5-yl)benzenesulfonamide] | 0.012 | –
O=S(=O)(Nc1ncns1)c1cc(Cl)c(NCCCCNC[C@@H]2CCCN2)cc1F [Ex 7-8, 5-chloro-2-fluoro-4-[(4-{[(2S)-pyrrolidin-2-ylmethyl]amino}butyl)amino]-N-1,2,4-thiadiazol-5-ylbenzenesulfonamide] | 0.01 | –
CNCCCNCCCCNc1cc(F)c(S(=O)(=O)Nc2ncc(F)s2)cc1Br [Ex 16-56, 5-bromo-2-fluoro-N-(5-fluoro-1,3-thiazol-2-yl)-4-[(4-{[3-(methylamino)-propyl]amino}butyl)amino]-benzenesulfonamide] | 0.012 | –
C[C@H]1CC[C@@H](CNCCCCNc2cc(F)c(S(=O)(=O)Nc3nccs3)cc2Cl)N1 [Ex 8-10, 5-chloro-2-fluoro-4-{[4-({[(2S,5S)-5-methylpyrrolidin-2-yl]-methyl}amino)butyl]amino}-N-1,3-thiazol-2-yl-benzenesulfonamide] | 0.016 | –
NCCCNCCCCNc1cc(F)c(S(=O)(=O)Nc2ncc(F)s2)cc1Cl [Ex 16-35, 4-({4[(3-aminopropyl)amino]-butyl}amino)-5-chloro-2-fluoro-N-(5-fluoro-1,3-thiazol-2-yl)benzene-sulfonamide] | 0.014 | –
O=S(=O)(Nc1ncc(F)s1)c1cc(Br)c(NCCCCN[C@@H]2CCNC2)cc1F [Ex 16-36, 5-bromo-2-fluoro-N-(5-fluoro-1,3-thiazol-2-yl)-4-({4-[(3R)-pyrrolidin-3-yl-amino]butyl}amino) benzene-sulfonamide] | 0.015 | –
CC(CCCNc1cc(F)c(S(=O)(=O)Nc2nccs2)cc1Cl)NC[C@@H]1CCCN1 (single isomer, unassigned) | – | 0.012
O=S(=O)(Nc1ncns1)c1cc(Cl)c(NCCCCN[C@@H]2CCNC2)cc1F [Ex 16-19, 5-chloro-2-fluoro-4-({4-[(3R)-pyrrolidin-3-ylamino]-butyl}amino)-N-1,2,4-thiadiazol-5-ylbenzene-sulfonamide] | 0.011 | –
